Results from patent US20190144401A1, “IMINOSYDNONE DERIVATIVES FOR CONJUGATION AND RELEASE OF COMPOUNDS OF INTEREST” (UNIVERSITE DE STRASBOURG, priority 2014, published 2019).

How the values were obtained:
[1] = Kinetics of the coupling reaction of iminosydnones with BCN (HPLC monitoring); assay type: physicochemical; conditions: 100 μM iminosydnone, 150 μM BCN, PBS 0.1M (pH 7.4) containing 10% DMSO
Method: (§1) The kinetics of the coupling reaction of different iminosydnones with two cyclic alkynes was studied, according to the following scheme.
(§2) Reactions of iminosydnones with BCN (Bicyclononyne) or TMTH were carried out in PBS/DMSO (9:1) mixtures at 100 μM concentration of sydnones and 150 μM concentration of BCN or TMTH using the following procedure:
(§3) To 900 μL of phosphate buffered saline (PBS, 100 mM) was added 87.5 μL of DMSO, 10 μL of the solution of benzamide (internal standard, 100 mM in DMSO), 1 μL of the solution of iminosydnone (100 mM in DMSO) and 1.5 μL of the solution of BCN or TMTH (100 mM in DMSO). The reaction mixture was injected in HPLC every 30 min and the conversion was followed by measuring the normalized sydnone peak area.
(§4) Second order reaction rate was determined by plotting ln([A]/[B])/([A]−[B]) versus time and analyzing by linear regression (Equation). Second order rate constant corresponds to the determined slope.
(§5) Equation. [A]—concentration of iminosydnones (M); [B]—concentration of BCN (M); t—reaction time (sec); k—reaction rate (M^−1·sec^−1)

[2] = Kinetics of the coupling reaction of iminosydnones with TMTH (HPLC monitoring); assay type: physicochemical; conditions: 100 μM iminosydnone, 150 μM TMTH, PBS 0.1M (pH 7.4) containing 10% DMSO
Method: as §1, §2, §3, §4, §5

Compound | K (BCN) [1] | K (TMTH) [2] [M⁻¹ s⁻¹]
Cc1ccc(-[n+]2cc([N-]C(=O)NCc3ccccc3)on2)cc1 [Im9] | 0.004 M⁻¹ s⁻¹ | 
[NH-]c1c[n+](-c2ccccc2)no1 [Im1] | no reaction | 
Cc1ccc(-[n+]2noc([N-]C(=O)OCc3ccccc3)c2Br)cc1 [Im12] | 0.150 M⁻¹ s⁻¹ | 
Cc1ccc(-[n+]2noc([N-]C(=O)NCc3ccccc3)c2Br)cc1 [Im10] | 0.060 M⁻¹ s⁻¹ | 
CCOC(=O)c1ccc(NC(=O)[N-]c2c[n+](-c3ccc(O)cc3)no2)cc1 [Im8] | 0.008 M⁻¹ s⁻¹ | 2.5
Cc1ccc(-[n+]2cc([N-]C(=O)CCc3ccccc3)on2)cc1 [Im4] | 0.034 M⁻¹ s⁻¹ | 
Cc1ccc(NC(=O)[N-]c2c[n+](-c3ccc(O)cc3)no2)cc1 [Im6] | 0.008 M⁻¹ s⁻¹ | 4.1
Cc1ccc(-[n+]2cc([N-]C(=O)OCc3ccccc3)on2)cc1 [Im11] | 0.026 M⁻¹ s⁻¹ | 
Cc1ccc(NC(=O)[N-]c2c[n+](-c3ccc(C(=O)O)cc3)no2)cc1 [Im7] | 0.108 M⁻¹ s⁻¹ | 61.2
Cc1ccc(NC(=O)[N-]c2c[n+](-c3ccccc3)no2)cc1 [Im5] | 0.069 M⁻¹ s⁻¹ | 43.1
N#CC#Cc1ccc(NC(=O)[N-]c2c[n+](-c3ccc(C(=O)O)cc3)no2)cc1 [Im14, (3-(4-carboxyphenyl)-1,2,3-oxadiazol-3-ium-5-yl)((4-(cyanoethynyl)phenyl)carbamoyl)amide] | 0.132 M⁻¹ s⁻¹ | 
CC(=O)[N-]c1c[n+](-c2ccccc2)no1 [Im2] | 0.002 M⁻¹ s⁻¹ | 2.2
Cc1ccc(-[n+]2cc([N-]C(=O)Cc3ccccc3)on2)cc1 [Im3] | 0.004 M⁻¹ s⁻¹ | 
